Laboratory results reported in patent US7105531B2, “Tricyclic protein kinase inhibitors” (WYETH, priority 1999, dated 2006).
Where a name gives a salt, the structure may show the parent alone.

Row | melting point | SMILES
1 | 193 to 204 °C | COc1cc(Nc2c(C#N)cnc3cc4cc(OCCCl)c(OC)cc4cc23)c(Cl)cc1F [Example 180, 8-(2-Chloroethoxy)-4-(2-chloro-4-fluoro-5-methoxyanilino)-7-methoxybenzo[g]quinoline-3-carbonitrile]
2 | 271 to 273 °C | COc1cc2cc3ncc(C#N)c(Nc4ccc(Cl)cc4Cl)c3cc2cc1OC [Example 14, 4-(2,4-Dichloroanilino)-7,8-dimethoxybenzo[g]quinoline-3-carbonitrile]
3 | > 280 °C | COc1cc2cc3ncc(C#N)c(Nc4ccc(F)c(Cl)c4)c3cc2cc1OC (as salt: salt) [Example 13, 4-(3-Chloro-4-fluoroanilino)-7,8-dimethoxybenzo[g]quinoline-3-carbonitrile]
4 | 137 to 159 °C | COc1cc2cc3c(Nc4ccc(F)c(Cl)c4)c(C#N)cnc3cc2cc1OCCCl [Example 185, 8-(2-Chloroethoxy)-4-(3-chloro-4-fluoroanilino)-7-methoxybenzo[g]quinoline-3-carbonitrile]
5 | 206 to 222 °C | COc1cc(Nc2c(C#N)cnc3cc4cc(OCCN5CCOCC5)c(OC)cc4cc23)c(Cl)cc1F
6 | 220 to 223 °C | COc1cc(Nc2c(C#N)cnc3cc4cc(OCCCCl)c(OC)cc4cc23)c(Cl)cc1Cl [Example 156, 8-(3-Chloropropoxy)-4-(2,4-dichloro-5-methoxyphenylamino)-7-methoxybenzo[g]quinoline-3-carbonitrile]
7 | > 260 °C | N#Cc1cnc2cc3cc(O)c(O)cc3cc2c1Nc1ccc(Cl)cc1Cl [Example 15, 4-(2,4-Dichloroanilino)-7,8-dihydroxybenzo[g]quinoline-3-carbonitrile]
8 | 239 to 255 °C (dec.) | COc1cc(Nc2c(C#N)cnc3cc4cc(OCCCl)c(OC)cc4cc23)c(Cl)cc1Cl [Example 126, 4-(2,4-dichloro-5-methoxyanilino)-7-methoxy-8-(chloroethoxy)benzo[g]quinoline-3-carbonitrile]
9 | 132 to 168 °C (dec.) | COc1cc(Nc2c(C#N)cnc3cc4cc(OCCCl)c(OC)cc4cc23)c(C)cc1Cl [Example 122, 4-(4-chloro-5-methoxy-2-methylanilino)-7-methoxy-8-(chloroethoxy)benzo[g]quinoline-3-carbonitrile]
10 | 248 to 250 °C (dec.) | COc1cc(Nc2c(C#N)cnc3cc4cc(OCc5ccccc5)c(OC)cc4cc23)c(Cl)cc1F [Example 219, 8-(Benzyloxy)-4-[(2-chloro-4-fluoro-5-methoxyphenyl)amino]-7-methoxybenzo[g]quinoline-3-carbonitrile]
11 | 222 to 236 °C | COc1cc(Nc2c(C#N)cnc3cc4cc(OCCCl)c(OC)cc4cc23)c(Cl)cc1C [Example 182, 8-(2-Chloroethoxy)-4-(2-chloro-5-methoxy-4-methylphenylamino)-7-methoxybenzo[g]quinoline-3-carbonitrile]
12 | 210 to 215 °C | COc1cc(Nc2c(C#N)cnc3cc4cc(OCCN5CCC(O)CC5)c(OC)cc4cc23)c(Cl)cc1C
13 | 184 to 186 °C | COc1cc2cc3c(Nc4ccc(Sc5nccn5C)c(Cl)c4)c(C#N)cnc3cc2cc1OCCN1CCN(C)CC1 [Example 152, 4-[3-Chloro-4-(1-methyl-1H-imidazol-2-ylsulfanyl)phenylamino]-7-methoxy-8-[2-(4-methylpiperazin-1-yl)ethoxy]-benzo[g]quinoline-3-carbonitrile]
14 | 275 to 280 °C | COc1cc2cc3c(Nc4ccc(Sc5nccn5C)c(Cl)c4)c(C#N)cnc3cc2cc1OCCCl [Example 148, 8-(2-Chloroethoxy)-4-[3-chloro-4-(1-methyl-1H-imidazol-2-ylsulfanyl)phenylamino]-7-methoxybenzo[g]quinoline-3-carbonitrile]
15 | 115 to 119 °C (dec.) | COc1cc2cc3ncc(C#N)c(Nc4ccc(Cl)cc4Cl)c3cc2cc1OCCN1CCOCC1
16 | 240 to 241 °C | COc1cc(Nc2c(C#N)cnc3cc4cc(OC)c(OCCN5CCOCC5)cc4cc23)c(Cl)cc1C
17 | 239 to 242 °C (dec.) | COc1cc2cc3c(Nc4cc(OC)c(F)cc4Cl)c(C#N)cnc3cc2cc1O [Example 220, 4-[(2-Chloro-4-fluoro-5-methoxyphenyl)amino]-8-hydroxy-7-methoxybenzo[g]quinoline-3-carbonitrile]
18 | 190 to 194 °C | COc1cc2cc3c(Nc4ccc(Oc5ccccc5)c(Cl)c4)c(C#N)cnc3cc2cc1OCCN1CCOCC1 [Example 213, 4-(3-Chloro-4-phenoxyphenylamino)-7-methoxy-8-(2-morpholin-4-yl-ethoxy)benzo[g]quinoline-3-carbonitrile]
19 | > 300 °C | COc1cc2cc3c(Nc4ccc(Sc5nccn5C)c(Cl)c4)c(C#N)cnc3cc2cc1OCCCCl [Example 150, 4-[3-Chloro-4-(1-methyl-1H-imidazol-2-ylsulfanyl)phenylamino]-8-(3-chloropropoxy)-7-methoxybenzo[g]quinoline-3-carbonitrile]
20 | 237 to 242 °C | COc1cc2cc3c(Nc4ccc(F)c(Cl)c4)c(C#N)cnc3cc2cc1OCCN1CCOCC1 [Example 205, 4-(3-Chloro-4-fluoroanilino)-7-methoxy-8-[2-(4-morpholinyl)ethoxy]benzo[g]quinoline-3-carbonitrile]
21 | > 260 °C | COc1ccc2cc3c(Nc4ccc(Cl)cc4Cl)c(C#N)cnc3cc2c1 [Example 104, 4-(2,4-Dichloroanilino)-8-methoxybenzo[g]quinoline-3-carbonitrile]
22 | 266 to 270 °C (dec.) | COc1cc2cc3c(Nc4ccc(Cl)cc4Cl)c(C#N)cnc3nc2cc1OC [Example 177, 4-(2,4-Dichloroanilino)-7,8-dimethoxybenzo[b][1,8]naphthyridine-3-carbonitrile]

More lines, now with the values behind:

Row | SMILES | melting point
23 | N#Cc1cnc2c(oc3ccccc32)c1Oc1ccc(Cl)cc1F [Example 89, 4-(4-Chloro-2-fluorophenoxy)-benzo[4,5]furo[3,2-b]pyridine-3-carbonitrile] | 138 to 140 °C
24 | N#Cc1cnc2c(sc3ccc([N+](=O)[O-])cc32)c1Nc1ccc(Cl)cc1Cl [Example 90, 4-(2,4-Dichloroanilino)-8-nitro[1]benzothieno[3,2-b]pyridine-3-carbonitrile] | 210 to 213 °C
25 | COc1cc(Nc2c(C#N)cnc3c2sc2ccc(N)cc23)c(C)cc1Cl [Example 76, 8-Amino-4-(4-chloro-5-methoxy-2-methylanilino)[1]benzothieno[3,2-b]pyridine-3-carbonitrile] | 266 to 268 °C (dec.)
26 | N#Cc1cnc2c(sc3ccc([N+](=O)[O-])cc32)c1Nc1cccc(Br)c1 [Example 91, 4-(3-Bromoanilino)-8-nitro[1]benzothieno[3,2-b]pyridine-3-carbonitrile] | > 300 °C
27 | COc1cc2cc3c(Nc4ccc(Sc5nccn5C)c(Cl)c4)c(C#N)cnc3nc2cc1OCCN1CCOCC1 [Example 176, 4-{3-Chloro-4-[(1-methyl-1H-imidazol-2-yl)sulfanyl]anilino}-7-methoxy-8-[2-(4-morpholinyl)ethoxy]benzo[b][1,8]naphthyridine-3-carbonitrile] | 160 to 162 °C (dec.)
28 | N#Cc1cnc2c(sc3c(N)cccc32)c1Nc1cccc(Br)c1 [Example 81, 6-Amino-4-(3-bromoanilino)[1]benzothieno[3,2-b]pyridine-3-carbonitrile] | 256 to 258 °C
29 | COc1cc(Nc2c(C#N)cnc3cc4ccccc4cc23)c(C)cc1Cl [Example 5, 4-(4-Chloro-5-methoxy-2-methylanilino)benzo[g]quinoline-3-carbonitrile] | 195 to 197 °C
30 | N#Cc1cnc2c(sc3ccccc32)c1Oc1ccc(Cl)cc1F [Example 71, 4-(4-Chloro-2-fluorophenoxy)benzo[4,5]thieno[3,2-b]pyridine-3-carbonitrile] | 174 to 175 °C
31 | COc1cc2cc3c(Nc4cc(OC)c(OC)c(OC)c4)c(C#N)cnc3nc2cc1OC [Example 178, 7,8-Dimethoxy-4-(3,4,5-trimethoxyanilino)benzo[b][1,8]naphthyridine-3-carbonitrile] | 250 to 252 °C (dec.)
32 | N#Cc1cnc2c(sc3ccc(N)cc32)c1Nc1cccc(Br)c1 [Example 92, 8-Amino-4-(3-bromoanilino)-[1]benzothieno[3,2-b]pyridine-3-carbonitrile] | 295 to 300 °C (dec.)
33 | COc1cc2cc3ncc(C#N)c(Nc4ccc(Oc5ccccc5)cc4)c3cc2cc1OC (as salt: salt) [Example 11, 7,8-Dimethoxy-4-(4-phenoxyanilino)benzo[g]quinoline-3-carbonitrile] | > 265 °C
34 | N#Cc1cnc2c(oc3ccccc32)c1Nc1ccc(Cl)cc1F [Example 86, 4-(4-Chloro-2-fluorophenylamino)benzo[4,5]furo[3,2-b]pyridine-3-carbonitrile] | 259 to 261 °C
35 | CCOC(=O)CN(CCOc1cc2cc3c(Nc4cc(OC)c(Cl)cc4C)c(C#N)cnc3cc2cc1OCC)CC(=O)OCC [Example 192, ({2[4-(4-Chloro-5-methoxy-2-methylphenylamino)-3-cyano-8-ethoxybenzo[g]quinoline-7-yloxy]-ethyl}-ethoxycarbonylmethyl-amino)-acetic acid ethyl ester] | 70 to 71 °C
36 | C=CC(=O)Nc1ccc2sc3c(Nc4cccc(Br)c4)c(C#N)cnc3c2c1 [Example 93, N-[4-(3-Bromoanilino)-3-cyano[1]benzothieno[3,2-b]pyridin-8-yl]acrylamide] | > 300 °C (dec.)
37 | N#Cc1cnc2cc3ccc(O)cc3cc2c1Nc1ccc(Cl)cc1Cl [Example 105, 4-(2,4-Dichloroanilino)-7-hydroxybenzo[g]quinoline-3-carbonitrile] | > 300 °C
38 | N#Cc1cnc2c(sc3ccccc32)c1Nc1cccc(Br)c1 [Example 65, 4-(3-Bromophenylamino)benzo[4,5]thieno[3,2-b]pyridine-3-carbonitrile] | 240 to 242 °C
39 | COc1cc(Nc2c(C#N)cnc3nc4cc(OCCN5CCN(C)CC5)c(OC)cc4cc23)c(Cl)cc1Cl [Example 175, 4-(2,4-Dichloro-5-methoxyanilino)-7-methoxy-8-[2-(4-methyl-1-piperazinyl)ethoxy]benzo[b][1,8]naphthyridine-3-carbonitrile] | 240 to 243 °C (dec.)
